Data: ChEMBL document CHEMBL1159170 (Bioorg Med Chem Lett, 1995)
Activity calls are given as the source filed them. The rule behind the calls is not given here.

Key:
[1] = target: Beta-1 adrenergic receptor (Homo sapiens) (UniProt P08588); assay: Compound was tested for its binding affinity against Beta-1 adrenergic receptor; IA is Inactive
[2] = target: Beta-2 adrenergic receptor (Homo sapiens) (UniProt P07550); assay: Compound was tested for its binding affinity against beta-2 adrenoceptor; IA is Inactive
Beta-2 adrenergic receptor (Homo sapiens), sequence (P07550 whole entry, looked up): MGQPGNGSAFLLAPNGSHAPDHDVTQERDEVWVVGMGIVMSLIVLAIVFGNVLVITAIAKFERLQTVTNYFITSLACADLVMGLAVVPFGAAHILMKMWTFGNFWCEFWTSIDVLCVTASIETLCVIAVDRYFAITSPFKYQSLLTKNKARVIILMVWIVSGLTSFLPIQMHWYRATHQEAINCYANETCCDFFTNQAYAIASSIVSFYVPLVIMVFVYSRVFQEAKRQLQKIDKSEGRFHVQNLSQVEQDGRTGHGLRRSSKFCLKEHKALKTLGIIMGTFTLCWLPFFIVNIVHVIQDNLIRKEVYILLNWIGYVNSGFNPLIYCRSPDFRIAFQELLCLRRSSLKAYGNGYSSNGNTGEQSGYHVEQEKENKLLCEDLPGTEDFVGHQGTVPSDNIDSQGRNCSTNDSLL

[3] = target: D(1A) dopamine receptor (Rattus norvegicus, UniProt P18901); assay: Binding affinity against Dopamine receptor D1 in rat striatal membranes using [3H]SCH-23390; type: cell membranes, Striatum, Membrane
D(1A) dopamine receptor, sequence (P18901 whole entry): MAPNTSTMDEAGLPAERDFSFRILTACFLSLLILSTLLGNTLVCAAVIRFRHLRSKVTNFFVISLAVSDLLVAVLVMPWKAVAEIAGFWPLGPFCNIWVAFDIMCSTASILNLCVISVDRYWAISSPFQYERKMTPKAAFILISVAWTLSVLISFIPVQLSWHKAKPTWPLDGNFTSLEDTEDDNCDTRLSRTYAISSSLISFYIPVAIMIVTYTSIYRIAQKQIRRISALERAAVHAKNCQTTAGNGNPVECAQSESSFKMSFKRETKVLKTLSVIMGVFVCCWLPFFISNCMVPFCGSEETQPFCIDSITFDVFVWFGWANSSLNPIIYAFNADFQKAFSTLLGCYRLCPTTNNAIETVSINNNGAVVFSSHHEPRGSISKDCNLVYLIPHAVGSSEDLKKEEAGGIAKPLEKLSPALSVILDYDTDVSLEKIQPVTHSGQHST

[4] = target: D(2) dopamine receptor (Rattus norvegicus, UniProt P61169); assay: Binding affinity against Dopamine receptor D2 in rat striatal membranes using [3H]spiperone; type: cell membranes, Striatum, Membrane
D(2) dopamine receptor, sequence (P61169 whole entry): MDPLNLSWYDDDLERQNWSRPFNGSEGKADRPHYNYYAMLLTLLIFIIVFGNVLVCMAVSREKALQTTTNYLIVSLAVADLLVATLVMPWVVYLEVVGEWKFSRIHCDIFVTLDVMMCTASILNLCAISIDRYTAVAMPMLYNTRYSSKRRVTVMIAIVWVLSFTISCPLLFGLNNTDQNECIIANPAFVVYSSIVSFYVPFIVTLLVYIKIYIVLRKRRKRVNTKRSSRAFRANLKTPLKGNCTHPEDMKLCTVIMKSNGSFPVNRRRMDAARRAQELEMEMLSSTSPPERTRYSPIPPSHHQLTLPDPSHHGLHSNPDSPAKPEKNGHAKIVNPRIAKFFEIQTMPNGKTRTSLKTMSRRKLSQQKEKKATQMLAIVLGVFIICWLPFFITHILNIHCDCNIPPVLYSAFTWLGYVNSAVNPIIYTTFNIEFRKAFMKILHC

[5] = target: T1, Adrenergic receptor alpha-1 (Homo sapiens, UniProt P35348+P25100+P35368); assay: Compound was tested for its binding affinity against Alpha-1 adrenergic receptor; type: protein assay
T1 sequence (P35348 whole entry): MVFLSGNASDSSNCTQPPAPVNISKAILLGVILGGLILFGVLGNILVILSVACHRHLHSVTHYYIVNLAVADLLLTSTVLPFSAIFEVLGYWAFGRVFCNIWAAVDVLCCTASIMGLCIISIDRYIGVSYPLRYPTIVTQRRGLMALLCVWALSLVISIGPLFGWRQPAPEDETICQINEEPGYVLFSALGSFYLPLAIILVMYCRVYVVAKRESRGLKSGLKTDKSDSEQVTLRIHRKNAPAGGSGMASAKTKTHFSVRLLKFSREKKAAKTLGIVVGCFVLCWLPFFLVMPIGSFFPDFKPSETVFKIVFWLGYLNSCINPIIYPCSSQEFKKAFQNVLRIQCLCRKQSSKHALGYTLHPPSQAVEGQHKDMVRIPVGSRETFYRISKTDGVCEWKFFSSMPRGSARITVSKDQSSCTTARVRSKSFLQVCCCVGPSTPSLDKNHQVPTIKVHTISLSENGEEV
T1 sequence (P25100 whole entry): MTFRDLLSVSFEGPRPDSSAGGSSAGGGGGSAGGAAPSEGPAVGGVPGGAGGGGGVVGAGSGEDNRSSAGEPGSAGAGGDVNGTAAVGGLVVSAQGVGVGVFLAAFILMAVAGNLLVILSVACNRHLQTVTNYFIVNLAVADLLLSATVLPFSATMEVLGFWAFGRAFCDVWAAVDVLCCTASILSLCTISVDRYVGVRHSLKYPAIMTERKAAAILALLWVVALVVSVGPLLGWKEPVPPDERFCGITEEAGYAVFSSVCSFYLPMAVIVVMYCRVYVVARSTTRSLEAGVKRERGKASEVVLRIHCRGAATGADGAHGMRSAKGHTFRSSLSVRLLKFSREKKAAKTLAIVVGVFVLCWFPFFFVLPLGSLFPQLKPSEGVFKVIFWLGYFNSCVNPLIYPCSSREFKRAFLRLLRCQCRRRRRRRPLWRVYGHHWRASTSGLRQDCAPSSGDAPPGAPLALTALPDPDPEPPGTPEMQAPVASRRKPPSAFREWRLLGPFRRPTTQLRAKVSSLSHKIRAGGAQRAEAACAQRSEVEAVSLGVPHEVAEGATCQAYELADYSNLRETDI
T1 sequence (P35368 whole entry): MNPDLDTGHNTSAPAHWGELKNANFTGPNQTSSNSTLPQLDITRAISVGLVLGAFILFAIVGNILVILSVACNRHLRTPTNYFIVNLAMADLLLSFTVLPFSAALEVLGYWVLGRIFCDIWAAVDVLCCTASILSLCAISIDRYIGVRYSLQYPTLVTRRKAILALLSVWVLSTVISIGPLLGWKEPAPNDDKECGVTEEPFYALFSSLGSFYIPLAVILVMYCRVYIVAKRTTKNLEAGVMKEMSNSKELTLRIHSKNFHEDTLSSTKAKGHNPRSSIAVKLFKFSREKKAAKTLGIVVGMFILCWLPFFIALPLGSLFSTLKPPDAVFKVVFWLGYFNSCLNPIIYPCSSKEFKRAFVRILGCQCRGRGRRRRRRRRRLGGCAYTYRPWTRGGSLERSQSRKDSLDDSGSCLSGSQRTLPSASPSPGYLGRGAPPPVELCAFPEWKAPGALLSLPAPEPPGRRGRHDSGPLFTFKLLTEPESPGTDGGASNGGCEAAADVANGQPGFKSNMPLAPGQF

[6] = test system: Canis familiaris; assay: Ability to induce dilation of dog femoral artery when administered intravenously; Values is potency versus DPDA; type: functional, Canis lupus familiaris
[7] = test system: Canis familiaris; assay: Blockade of dog renal artery dilation by the […] was measured after intravenous administration of 0.05-0.1 mg/kg; type: functional, Canis lupus familiaris
[8] = test system: Canis familiaris; assay: Blockade of dog femoral artery dilation by the D-2 antagonist domperidone was measured after intravenous administration of […]; type: functional, Canis lupus familiaris
[9] = test system: Canis familiaris; assay: Ability to induce dilation of dog renal artery when administered intravenously; Values is potency versus DPDA; type: functional, Canis lupus familiaris
[10] = test system: Rattus norvegicus; assay: Compound was tested for urine flow in conscious spontaneously hypertensive rats after peroral administration of 30 mg/kg; type: functional; settings: route oral
[11] = test system: Rattus norvegicus; assay: Compound was tested for mean blood pressure effect in conscious spontaneously hypertensive rats after peroral administration of 30 mg/kg; type: functional; settings: route oral

Beta-1 adrenergic receptor (Homo sapiens), sequence (P08588 whole entry, looked up): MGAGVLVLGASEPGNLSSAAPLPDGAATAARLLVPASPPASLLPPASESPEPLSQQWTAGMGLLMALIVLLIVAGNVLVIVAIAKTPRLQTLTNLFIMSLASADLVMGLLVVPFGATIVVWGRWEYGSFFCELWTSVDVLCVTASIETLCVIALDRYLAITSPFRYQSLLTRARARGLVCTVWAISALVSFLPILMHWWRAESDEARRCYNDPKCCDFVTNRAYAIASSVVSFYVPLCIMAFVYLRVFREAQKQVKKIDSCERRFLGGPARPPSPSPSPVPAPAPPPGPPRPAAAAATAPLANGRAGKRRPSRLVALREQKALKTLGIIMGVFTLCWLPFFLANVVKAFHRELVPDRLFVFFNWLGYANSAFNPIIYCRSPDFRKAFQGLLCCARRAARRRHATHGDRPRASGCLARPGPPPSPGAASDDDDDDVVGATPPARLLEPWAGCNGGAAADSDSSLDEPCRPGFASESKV

Compound | Log Ki [1] | Log Ki [2] | Ki [3] [nM] | Ki [4] [nM] | Log Ki [5] | Change in blood flow [6] | Blockade [7] [%] | Blockade [8] [%] | Change in blood flow [9] | Cumulative urine volume [10] | Decrease in blood pressure [11]
CCCN(CCC)CCc1ccc(O)c(O)c1 |  |  | 4680 | 22.4 | -5.7 | 1 |  | 80 |  |  | 
CCCCN1CCCC1Cc1ccc(O)c(O)c1 (stereo not given) |  |  | 7.94 | 3.16 |  |  |  |  |  |  | 
NCCc1ccc(O)c(O)c1 [DOPAMINE] |  |  |  |  |  |  | 100 |  | 1 | 4 | 9.4
Oc1ccc(C2CNCCc3c2cc(O)c(O)c3Cl)cc1 (stereo not given) [FENOLDOPAM] |  |  |  |  |  | 0.2 | 100 | 20 | 8 |  | 

More lines, main results first:

Log Ki [1] | Log Ki [2] | Ki [3] [nM] | Ki [4] [nM] | Log Ki [5] | Compound | Change in blood flow [6] | Blockade [7] [%] | Blockade [8] [%] | Change in blood flow [9] | Cumulative urine volume [10] | Decrease in blood pressure [11]
inactive | inactive | 575 | 8.91 | -6.24 | Oc1ccc(C[C@H]2CCCN2CCCCCCN2CCC[C@H]2Cc2ccc(O)c(O)c2)cc1O | 80 | 100 | 20 | 9.4 |  | 
inactive | inactive | 6.46 | 6.17 | -7.25 | Oc1ccc(C[C@H]2CCCN2CCCCCCN2CCC[C@@H]2Cc2ccc(O)c(O)c2)cc1O | 359 | 100 | 70 | 1.2 | 17 | 22.4
inactive | inactive | 18.6 | 3.24 | -6.41 | CCCN(CCCCCCN1CCC[C@@H]1Cc1ccc(O)c(O)c1)CCc1ccc(O)c(O)c1 | 382 | 100 | 70 | 6 | 24 | 18.6
inactive | inactive | 617 | 14.8 | -6.41 | Oc1ccc(C[C@@H]2CCCN2CCCCCCN2CCC[C@H]2Cc2ccc(O)c(O)c2)cc1O | 0.3 | 100 | 0 | 1.2 |  | 
